This is an account of results in ChEMBL document CHEMBL4483862, “Open-source discovery of chemical leads for next-generation chemoprotective antimalarials” (2018).

A word on the IC50: it is the midpoint of a concentration-inhibition curve. A word on the IC90: it is the concentration at which the effect reaches the 90% level.

This experiment has as its system Plasmodium berghei. As to the kind of experiment: Luciferase/luciferin-expressing antifolate-resistant parasites were used to infect a culture of HepG2 cells that were pre-incubated with compounds. Infected hepatocytes emit light due to the luciferase reaction. Assay results are presented as the percent inhibition of light emission compared to control. […]. The format is functional. The note with it: sporozoite; for IC90: read-out: LUCIFERASE INFECTION ASSAY - IC90.

[1] abbreviates: read-out: LUCIFERASE INFECTION ASSAY - IC50.

As for `Cc1cc(C(C)(C)C)cc(S(=O)(=O)Nc2ccc(C(=O)OC(C)C(=O)c3cc(C)n(-c4ccccc4)c3C)cc2)c1C` (stereo not drawn), the IC90 was greater than 10 µM. The IC50 (FFLUC_HILL_SLOPE 4.56, FFLUC_R_SQUARED 0.633, PBLUC_HILL_SLOPE 9.36, PBLUC_R_SQUARED 0.441, read-out: LUCIFERASE INFECTION ASSAY - IC50) was 8.93 µM.
On to `Cn1c(-c2ccco2)nc2cnc(Nc3cccc(F)c3)cc21`, for which the IC90 is greater than 10 µM. Further, where the note is “HEPG2TOX_HILL_SLOPE 1.1, HEPG2TOX_R_SQUARED 0.907, read-out: LUCIFERASE INFECTION ASSAY - IC50”, the IC50 was greater than 10 µM.
For the compound `CCN1C(=Cc2cc(C)[n+](CCCN3CCOCC3)c(C)c2)Sc2ccccc21`, the IC90 came out at 5.67 µM. Besides, the IC50 (HEPG2TOX_HILL_SLOPE 1.6, HEPG2TOX_R_SQUARED 0.978, PBLUC_HILL_SLOPE 2.92, PBLUC_R_SQUARED 0.557, read-out: LUCIFERASE INFECTION ASSAY - IC50) came to 2.67 µM.
Turning to `Fc1cccc(F)c1/C=N/c1ccccc1N1CCOCC1`, the IC90 is greater than 10 µM. Moreover, the IC50 under setting [1] is greater than 10 µM.
For `CCn1c(=O)c(=O)[nH]c2cc(C(=O)Nc3cccc(C#Cc4cccs4)c3)ccc21`, the IC90 was greater than 10 µM. For the same compound, the half-maximal inhibitory concentration (IC50) under setting [1] was greater than 10 µM.
For `Cc1cc(C(=O)CN2C(=O)NC(C)(c3ccc(C(C)(C)C)cc3)C2=O)c(C)n1C` (stereo not drawn), the IC90 was greater than 10 µM. The IC50 under setting [1] is greater than 10 µM.
On to `COc1ccc2c(c1)[nH]c1c(N(C)CCc3ccc(OC)c(OC)c3)ncnc12`, for which the IC90 is greater than 8.41 µM. Besides, under “HEPG2TOX_HILL_SLOPE 1.05, HEPG2TOX_R_SQUARED 0.856, PBLUC_HILL_SLOPE 1.55, PBLUC_R_SQUARED 0.53, read-out: LUCIFERASE INFECTION ASSAY - IC50”, the IC50 turned out to be 4.47 µM.
Consider `COc1ccc2c(C)nc(Nc3nc(O)c4ccccc4n3)nc2c1`, for which the IC90 was found to be 3.1 µM. In addition, where the note is “HEPG2TOX_HILL_SLOPE 241, HEPG2TOX_R_SQUARED 0.475, PBLUC_HILL_SLOPE 24.4, PBLUC_R_SQUARED 0.363, read-out: LUCIFERASE INFECTION ASSAY - IC50”, the IC50 came out at 2.83 µM.
Regarding `N#Cc1ccc(OCC(=O)c2ccc(OC(F)F)cc2OC(F)F)cc1`, the IC90 was greater than 10 µM. Moreover, under setting [1], the IC50 was greater than 10 µM.
Turning to `COc1cccc(Cn2nc(C(=O)NC3CC3)c3c2CCN(Cc2cc4c(cc2Cl)OCO4)C3)c1`, the IC90 is greater than 6.67 µM. Moreover, under “PBLUC_HILL_SLOPE 2.62, PBLUC_R_SQUARED 0.537, read-out: LUCIFERASE INFECTION ASSAY - IC50”, the IC50 is 3.5 µM.
For the compound `Cc1cc(C(=O)NCc2nnc3ccccn23)c(C)n1C1CCCCC1`, the concentration for an effect of 90% (IC90) was 6.61 µM. The IC50 (FFLUC_HILL_SLOPE 1.4, FFLUC_R_SQUARED 0.0106, PBLUC_HILL_SLOPE 1.41, PBLUC_R_SQUARED 0.709, read-out: LUCIFERASE INFECTION ASSAY - IC50) was 1.39 µM.
As to `Cc1c(-c2ccccc2)sc2[nH]c(SC(C(=O)c3ccccc3)c3ccccc3)nc(=O)c12` (stereo not drawn), the IC90 is greater than 10 µM. Moreover, the IC50 (HEPG2TOX_HILL_SLOPE 4.76, HEPG2TOX_R_SQUARED 0.813, PBLUC_HILL_SLOPE 2.74, PBLUC_R_SQUARED 0.111, read-out: LUCIFERASE INFECTION ASSAY - IC50) was found to be 6.76 µM.
With `COc1cc(CNC2CCCC2)c(Br)cc1OC1CCCC1`, the IC90 was greater than 8.15 µM. The IC50 (PBLUC_HILL_SLOPE 45, PBLUC_R_SQUARED 0.216, read-out: LUCIFERASE INFECTION ASSAY - IC50) amounted to 8.1 µM.
For the compound `CNC(=O)c1ccc(C)c(C)c1`, the 90% effect concentration (IC90) is greater than 10 µM. Also, the IC50 under setting [1] was greater than 10 µM.
For `COCCNc1nc(-c2c(-c3ccccc3)[nH]c3ccccc23)cs1`, the concentration for an effect of 90% (IC90) is greater than 10 µM. Further, the IC50 under setting [1] was greater than 10 µM.
Regarding `O=C(OCC(=O)N(CCc1ccccc1)Cc1ccccc1)c1ccccc1NCCO`, the IC90 is greater than 10 µM. Under setting [1], the concentration for half-maximal inhibition (IC50) is greater than 10 µM.
On to `Nc1cc(Cl)c(-n2cccc2)cc1Oc1ccc(Cl)cc1`, for which the IC90 is greater than 10.3 µM. In addition, the IC50 (FFLUC_HILL_SLOPE 2.28, FFLUC_R_SQUARED 0.58, read-out: LUCIFERASE INFECTION ASSAY - IC50) is greater than 10.3 µM.
In the case of `COc1ccc(NC(=O)c2ccc(NC(=O)c3nc4nccc(C)n4n3)cc2)cc1`, the IC90 was greater than 10 µM. Further, the IC50 under setting [1] was greater than 10 µM.
Turning to `Cc1onc(-c2c(F)cccc2Cl)c1C(=O)NC1CCSC1=O` (stereo not drawn), the IC90 was greater than 9.3 µM. The IC50 under setting [1] was greater than 9.3 µM.
`CC(C)CNC1=C(Cl)C(=O)c2ccccc2C1=O`: the IC90 was greater than 12.5 µM. For the same compound, where the note is “PBLUC_HILL_SLOPE 2.71, PBLUC_R_SQUARED 0.283, read-out: LUCIFERASE INFECTION ASSAY - IC50”, the IC50 was found to be 11.4 µM.
For `CCN(CC)c1ccc(N=C2C=CC(=O)c3ccccc32)c(C)c1`, the IC90 is 4.59 µM. Also, for the setting “FFLUC_HILL_SLOPE 15.8, FFLUC_R_SQUARED 0.584, HEPG2TOX_HILL_SLOPE 2.04, HEPG2TOX_R_SQUARED 0.961, PBLUC_HILL_SLOPE 2.09, PBLUC_R_SQUARED 0.781, read-out: LUCIFERASE INFECTION ASSAY - IC50”, the IC50 came out at 1.61 µM.
As to `CC(NCc1ccc(N(C)CCO)cc1)c1ccc(-c2ccccc2)cc1` (stereo not drawn), the IC90 was greater than 10 µM. The IC50 (PBLUC_HILL_SLOPE 1.73, PBLUC_R_SQUARED 0.432, read-out: LUCIFERASE INFECTION ASSAY - IC50) stood at 8 µM.
Take `Cc1nn(C)c(C)c1NC(=O)C(C)Sc1nnc(Nc2ccc(Oc3ccccc3)cc2)s1` (stereo not drawn): the IC90 is greater than 10 µM. For the same compound, for the setting “PBLUC_HILL_SLOPE 13, PBLUC_R_SQUARED 0.117, read-out: LUCIFERASE INFECTION ASSAY - IC50”, the IC50 came to 8.97 µM.
For `Cc1c(-c2cc(-c3ccc(Cl)cc3)nc3ccccc23)oc2ccc(F)cc2c1=O`, the 90% effect concentration (IC90) is greater than 10 µM. The IC50 under setting [1] is greater than 10 µM.
As for `O=C(Nc1ccc(Cl)cc1)Nc1ccccc1SCc1ncc(C(F)(F)F)cc1Cl`, the IC90 is greater than 6.99 µM. Also, the IC50 (HEPG2TOX_HILL_SLOPE 7.43, HEPG2TOX_R_SQUARED 0.87, PBLUC_HILL_SLOPE 2.47, PBLUC_R_SQUARED 0.266, read-out: LUCIFERASE INFECTION ASSAY - IC50) worked out at 4.63 µM.
With `CCOc1ccc(-c2nc(C(=O)Nc3ncccc3O)cs2)cc1`, the IC90 amounted to 3.84 µM. Besides, the IC50 (PBLUC_HILL_SLOPE 16.6, PBLUC_R_SQUARED 0.386, read-out: LUCIFERASE INFECTION ASSAY - IC50) worked out at 3.36 µM.
Take `O=C(NCCCNc1ccnc2cc(Cl)ccc12)c1ccccc1F`: the IC90 is 6.19 µM. The IC50 (PBLUC_HILL_SLOPE 1.88, PBLUC_R_SQUARED 0.797, read-out: LUCIFERASE INFECTION ASSAY - IC50) came to 1.93 µM.
For the compound `Cc1cccc(C)c1NC(=O)CSc1nc(=O)c2c(C)c(-c3ccccc3)sc2[nH]1`, the IC90 is greater than 10 µM. The concentration for half-maximal inhibition (IC50) under setting [1] was greater than 10 µM.
Regarding `O=C(Nc1ccc(-c2csc(N3CCOCC3)n2)cc1)c1ccc(Br)c([N+](=O)[O-])c1`, the concentration for an effect of 90% (IC90) was greater than 10 µM. In addition, the IC50 under setting [1] is greater than 10 µM.
In the case of `COc1ccccc1NC(=O)c1cc2ccccc2c(CN2CCN(c3ccccc3)CC2)c1O`, the IC90 is greater than 10 µM. The IC50 under setting [1] is greater than 10 µM.
Regarding `Cc1oc(C(C)(C)C)cc1-c1cc(NC(=O)Nc2ccc(OC(F)(F)F)cc2)n(-c2cc(C(F)(F)F)cc(C(F)(F)F)c2)n1`, the IC90 amounted to 4.49 µM. Also, where the note is “HEPG2TOX_HILL_SLOPE 8.23, HEPG2TOX_R_SQUARED 0.187, PBLUC_HILL_SLOPE 2.09, PBLUC_R_SQUARED 0.645, read-out: LUCIFERASE INFECTION ASSAY - IC50”, the IC50 turned out to be 1.57 µM.
For the compound `CC(C)n1ncc2cc(C(=O)Nc3cccc4c3CCCC4)cnc21`, the IC90 came to 8.92 µM. Besides, under “HEPG2TOX_HILL_SLOPE 1.91, HEPG2TOX_R_SQUARED 0.864, PBLUC_HILL_SLOPE 1.61, PBLUC_R_SQUARED 0.644, read-out: LUCIFERASE INFECTION ASSAY - IC50”, the IC50 turned out to be 2.28 µM.
With `CCOC(=O)c1c(-c2ccc(F)cc2)csc1NC(=O)CSc1nc2c(c(-c3ccccc3)c1C#N)C(=O)CC(C)(C)C2`, the IC90 is greater than 10 µM. Also, the IC50 (FFLUC_HILL_SLOPE 18.8, FFLUC_R_SQUARED 0.892, read-out: LUCIFERASE INFECTION ASSAY - IC50) was greater than 10 µM.
As for `Cc1ccc(SCc2ccccc2C(=O)Nc2cc(Cl)ccc2O)cc1`, the IC90 was greater than 8.6 µM. Moreover, the IC50 under setting [1] was greater than 8.6 µM.
Take `CCN1CCC[C@H]1CNC(=O)C(C)c1ccc2c(c1)[nH]c1ccc(Cl)cc12` (stereo partly drawn): the 90% effect concentration (IC90) was determined as 5.54 µM. Also, the IC50 (HEPG2TOX_HILL_SLOPE 11.5, HEPG2TOX_R_SQUARED 0.93, PBLUC_HILL_SLOPE 6.18, PBLUC_R_SQUARED 0.807, read-out: LUCIFERASE INFECTION ASSAY - IC50) turned out to be 3.88 µM.
In the case of `O=C(COc1ccccc1CSc1ccc(Cl)cc1)N/N=C\c1ccc(Cl)cc1`, the IC90 was greater than 7.41 µM. Moreover, the IC50 (PBLUC_HILL_SLOPE 0.291, PBLUC_R_SQUARED 0.508, read-out: LUCIFERASE INFECTION ASSAY - IC50) was greater than 7.41 µM.
Regarding `O=c1[nH]nc(SCc2ccc([N+](=O)[O-])cc2)n1CC1CCCO1` (stereo not drawn), the IC90 is greater than 10 µM. Under setting [1], the IC50 is greater than 10 µM.
In the case of `O=c1c(C(F)(F)F)cccn1Cc1csc(COc2ccc(Cl)cc2)n1`, the IC90 is greater than 10 µM. Further, where the note is “HEPG2TOX_HILL_SLOPE 13.6, HEPG2TOX_R_SQUARED 0.877, PBLUC_HILL_SLOPE 2.65, PBLUC_R_SQUARED 0.537, read-out: LUCIFERASE INFECTION ASSAY - IC50”, the IC50 is 7.31 µM.
Turning to `CCOC(=O)c1c(C)nn(-c2ccc(NC(=O)Nc3ccc(Cl)cc3)cc2)c1C`, the IC90 was greater than 7.99 µM. Under setting [1], the IC50 was greater than 7.99 µM.
